Data: patent US6174713A, “Candida cytoplasmic tryptophanyl-tRNA synthetase proteins, nucleic acids and strains comprising same” (Cubist Pharmaceuticals, Inc., priority 1997, dated 2001)

Experiments:
[1] = biological target: C. albicans cytoplasmic tryptophanyl-tRNA synthetase (recombinant, thrombin-cleaved GST fusion from pC3 822) (Candida albicans, UniProt Q5A3P4); experiment: Aminoacylation (charging) assay, Km determination with purified recombinant TrpRS; assay type: biochemical; settings: read-out: Km for tryptophan; recombinant enzyme; crude yeast tRNA; 1 to 40 μM [3H]tryptophan; 25° C.
Sequence of C. albicans cytoplasmic tryptophanyl-tRNA synthetase (recombinant, thrombin-cleaved GST fusion from pC3 822) (Q5A3P4 whole entry S271A, the tested form may be a part): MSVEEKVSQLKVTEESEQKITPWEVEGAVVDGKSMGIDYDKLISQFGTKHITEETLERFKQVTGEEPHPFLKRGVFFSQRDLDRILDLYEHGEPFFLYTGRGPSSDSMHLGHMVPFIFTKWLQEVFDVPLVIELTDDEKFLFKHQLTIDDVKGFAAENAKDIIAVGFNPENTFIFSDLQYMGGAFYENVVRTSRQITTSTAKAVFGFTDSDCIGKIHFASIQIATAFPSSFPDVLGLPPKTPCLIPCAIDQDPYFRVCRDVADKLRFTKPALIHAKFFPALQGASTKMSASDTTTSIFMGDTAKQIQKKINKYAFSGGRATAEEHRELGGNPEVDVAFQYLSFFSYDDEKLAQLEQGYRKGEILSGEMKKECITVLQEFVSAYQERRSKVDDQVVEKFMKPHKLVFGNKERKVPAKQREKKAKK
Procedure: (§1) The purified recombinant protein obtained after thrombin cleavage of the GST-fusion protein produced by JM109/pC^3 822 was used for further kinetic studies. Charging assays were based on the procedure of Shepard et al. (Proc. Natl. Acad. Sci. USA 89:9964-68 (1992)). Unless otherwise stated, a typical 50 μl reaction, carried out at 25° C., contained 1 mM ATP, 1 μM of [^3 H]Tryptophan (22.2 Ci/mmol), 90 μM crude tRNA from brewer's yeast (Boehringer Mannheim), 10 mM KF, 30 mM HEPES, 30 mM KCl pH 7.5, 5 mM MgCl2, and 10 mM DTT. Purified enzyme was diluted in 100 mM HEPES, pH 7.5, 20 mM DTT and 0.1 mg/ml BSA.
(§2) Reactions were started by the addition of enzyme to the reaction mixture preincubated at 25° C., with […] protein in the assay. At various time intervals, 10 μl of the reaction mix was quenched in a 96-well filter plate (Millipore, cat# MAFBNOB50) prefilled with 100 μl of cold 5% TCA. The liquid in the filter plate was drained by applying vacuum suction on the manifold. The plate was subsequently washed 2 times with 200 μl 5% TCA, 2 times with 100 μl double distilled H2 O with continuous vacuum suction, and once with 100 μl 95% EtOH. The plate was heat-dried under vacuum, 100 μl Microscint was added to each well, and the aminoacylated tRNA was quantitated by scintillation counting in a Topcount (Packard) scintillation counter. […]

[2] = test system: Nc1ncnc2c1ncn2[C@@H]1O[C@H](COP(=O)(O)OP(=O)(O)OP(=O)(O)O)[C@@H](O)[C@H]1O; experiment: as above; assay type: biochemical, Candida albicans; settings: other: recombinant enzyme, ATP concentration range 0.19 to 6 mM, 25° C., pH 7.5
Procedure: as §1, §2

Molecule	Km [1]	Km [2]
N[C@@H](Cc1c[nH]c2ccccc12)C(=O)O [tryptophan]	3 to 4 µM	
C. albicans cytoplasmic tryptophanyl-tRNA synthetase (recombinant, thrombin-cleaved GST fusion from pC3 822) (Candida albicans SC5314)		1100 µM
